Assay results from patent publication WO2019242687A1, “1,3-dioxane-4,6-dione compound, and preparation method, pharmaceutical composition, and application thereof” (Shanghai Institute of Materia Medica of CAS, priority 2018, dated 2018).
Where two headings read alike, the source gives them in different places.

Experiments:
[1] = biological target: T1, SIRT1 (Homo sapiens, UniProt Q96EB6); test: SIRT1 enzyme activity test (deacetylase inhibition); assay type: biochemical; conditions: 1 μM SIRT1, 500 μM NAD+, 10 μM substrate peptide
T1 sequence (Q96EB6 1-747): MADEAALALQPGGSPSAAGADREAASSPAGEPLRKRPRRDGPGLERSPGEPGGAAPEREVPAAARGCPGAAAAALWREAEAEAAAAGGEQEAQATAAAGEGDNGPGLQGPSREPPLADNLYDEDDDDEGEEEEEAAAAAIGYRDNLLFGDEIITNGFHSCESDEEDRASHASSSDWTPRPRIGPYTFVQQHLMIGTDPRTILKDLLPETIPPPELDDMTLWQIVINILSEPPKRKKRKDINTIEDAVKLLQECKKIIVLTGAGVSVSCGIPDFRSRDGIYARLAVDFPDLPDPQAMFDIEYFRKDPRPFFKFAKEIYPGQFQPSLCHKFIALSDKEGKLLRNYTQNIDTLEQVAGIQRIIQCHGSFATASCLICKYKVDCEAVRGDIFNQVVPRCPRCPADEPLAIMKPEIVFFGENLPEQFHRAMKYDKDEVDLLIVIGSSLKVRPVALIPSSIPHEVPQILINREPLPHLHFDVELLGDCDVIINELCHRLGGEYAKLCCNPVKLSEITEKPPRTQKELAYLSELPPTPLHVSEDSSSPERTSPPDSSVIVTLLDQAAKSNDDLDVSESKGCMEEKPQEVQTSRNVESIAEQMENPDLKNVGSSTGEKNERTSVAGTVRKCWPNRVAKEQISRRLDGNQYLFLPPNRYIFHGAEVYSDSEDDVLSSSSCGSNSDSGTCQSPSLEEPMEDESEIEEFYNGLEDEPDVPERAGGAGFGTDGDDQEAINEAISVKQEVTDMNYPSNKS

[2] = tested on: p53 acetylation levels in SH-SY5Y human neuroblastoma cells; test: Effect of compounds on p53 acetylation level in cells (Western blot); assay type: cell-based; conditions: ATRA-induced differentiation, compound 10 μM, 2 h, Figure 5
[3] = biological target: T2, SIRT5 (Homo sapiens, UniProt Q9NXA8); test: Inhibition of SIRT5 (as SIRT1 IC50 method)
T2 sequence (Q9NXA8 37-310): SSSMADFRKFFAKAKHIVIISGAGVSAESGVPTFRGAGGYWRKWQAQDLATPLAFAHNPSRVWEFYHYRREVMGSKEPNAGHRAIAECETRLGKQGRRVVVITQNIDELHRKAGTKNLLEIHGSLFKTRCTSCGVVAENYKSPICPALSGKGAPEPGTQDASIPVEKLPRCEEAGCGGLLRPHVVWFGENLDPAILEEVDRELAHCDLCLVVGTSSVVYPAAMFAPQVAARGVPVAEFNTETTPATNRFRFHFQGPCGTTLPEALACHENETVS

[4] = biological target: T3, SIRT3 (Homo sapiens, UniProt Q9NTG7); test: Inhibition of SIRT3 (as SIRT1 IC50 method)
T3 sequence (Q9NTG7 1-399): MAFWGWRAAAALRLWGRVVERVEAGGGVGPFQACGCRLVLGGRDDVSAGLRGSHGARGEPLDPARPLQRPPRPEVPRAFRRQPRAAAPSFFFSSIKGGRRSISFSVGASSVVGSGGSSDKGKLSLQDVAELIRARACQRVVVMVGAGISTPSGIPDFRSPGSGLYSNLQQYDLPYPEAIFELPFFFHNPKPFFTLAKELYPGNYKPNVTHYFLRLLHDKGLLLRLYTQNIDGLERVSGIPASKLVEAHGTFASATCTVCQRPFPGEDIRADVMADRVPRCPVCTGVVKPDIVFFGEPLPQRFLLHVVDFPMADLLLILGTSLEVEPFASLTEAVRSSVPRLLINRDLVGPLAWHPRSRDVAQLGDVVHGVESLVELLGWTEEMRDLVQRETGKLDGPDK

[5] = biological target: T4, SIRT2 (Homo sapiens, UniProt Q8IXJ6); test: Inhibition of SIRT2 (as SIRT1 IC50 method)
T4 sequence (Q8IXJ6 1-389): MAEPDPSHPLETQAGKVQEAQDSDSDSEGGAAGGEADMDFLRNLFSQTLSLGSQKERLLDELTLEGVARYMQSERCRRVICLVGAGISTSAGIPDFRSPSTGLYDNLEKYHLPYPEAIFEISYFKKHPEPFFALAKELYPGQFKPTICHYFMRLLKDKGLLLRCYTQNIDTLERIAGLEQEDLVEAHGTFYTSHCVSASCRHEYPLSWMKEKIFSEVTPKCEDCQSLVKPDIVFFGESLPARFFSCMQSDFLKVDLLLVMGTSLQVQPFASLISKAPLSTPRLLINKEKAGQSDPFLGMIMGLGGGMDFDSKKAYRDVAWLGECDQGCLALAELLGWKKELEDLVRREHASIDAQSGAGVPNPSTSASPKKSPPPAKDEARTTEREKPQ

[6] = Table 2, 37 °C, 30 min, read-out: IC50
[7] = Table 3, SITR1 [sic], read-out: Inhibition of SIRT1 deacylation (IC50)

SMILES	IC50 [1, 6]	IC50 [1, 7]	effect on decrease of p53 acetylation level [2]	other results
CC1(c2ccccc2)OC(=O)C(=Cc2ccccc2)C(=O)O1 (stereo not drawn) [Compound S8, 5-benzylidene-2-methyl-2-phenyl-1,3-dioxane-4,6-dione]	> 50 µM	–	–	–
CC(C)Oc1ccccc1C=C1C(=O)OC(c2ccccc2)OC1=O (stereo not drawn) [Compound S14, 5-(2-isopropoxybenzylidene) -2-phenyl-1,3-dioxane-4,6-dione]	14 ± 2.01 µM	–	–	–
O=C1OC(c2ccccc2)OC(=O)C1=Cc1ccc(OCc2ccc3c(c2)OCO3)cc1 (stereo not drawn) [Compound S17, 5-[4-(1,3-Benzodioxolane-5-alkylmethoxy)benzylidene] -2-phenyl-1,3-dioxane-4,6-dione]	3.41 ± 0.19 µM	–	–	–
O=C(COc1ccc(C=C2C(=O)OC(c3ccccc3)OC2=O)cc1)Nc1ccccc1 (stereo not drawn) [Compound S21, 2-{4-[(4,6-Dioxo-2-phenyl-1,3-dioxane-5-ylbenzylidene)methyl]phenoxy} -N-phenylacetamide]	4.51 ± 1.17 µM	–	–	–

The next lines start with results.

IC50 [1, 6]	IC50 [1, 7]	SMILES	effect on decrease of p53 acetylation level [2]	other results
2.45 ± 0.37 µM	–	COc1cc(C=C2C(=O)OC(C)(c3ccccc3)OC2=O)cc(I)c1O (stereo not drawn) [Compound S2, 5-(4-hydroxy-3-iodo-5-methoxybenzylidene) -2-methyl-2-phenyl-1,3-dioxane-4,6-dione]	–	–
–	0.89 ± 0.01 µM	COc1cc(C=C2C(=O)OC(c3ccccc3)OC2=O)cc(I)c1O (stereo not drawn) [Compound S6, 5-(4-hydroxy-3-iodo-5-methoxybenzylidene) -2-phenyl-1,3-dioxane-4,6-dione]	抑制ATRA诱导的SH-SY5Y细胞分化过程中p53乙酰化水平降低	–
–	1.9 ± 0.53 µM	COc1cc(C=C2C(=O)OC(c3ccccc3)OC2=O)cc(Cl)c1O (stereo not drawn) [Compound S10, 5-(3-chloro-4-hydroxy-5-methoxybenzylidene) -2-phenyl-1,3-dioxane-4,6-dione]	抑制ATRA诱导的SH-SY5Y细胞分化过程中p53乙酰化水平降低	IC50 [3]: 32.5 ± 1.15 µM; IC50 [4]: 204 ± 16.2 µM; IC50 [5]: 64.4 ± 7.09 µM
–	1.2 ± 0.09 µM	O=C1OC(c2ccccc2)OC(=O)C1=Cc1cc(Cl)c(O)c(Cl)c1 (stereo not drawn) [Compound S15, 5-(3,5-dichloro-4-hydroxybenzylidene) -2-phenyl-1,3-dioxane-4,6-dione]	抑制ATRA诱导的SH-SY5Y细胞分化过程中p53乙酰化水平降低	–
4.89 ± 0.35 µM	–	COc1cc(OC)c(C=C2C(=O)OC(c3ccccc3)OC2=O)cc1Br (stereo not drawn) [Compound S22, 5-(5-bromo-2,4-dimethoxybenzylidene) -2-phenyl-1,3-dioxane-4,6-dione]	–	–
